Several values for one entry are separate records, joined by “and”; a condition that tells them apart may be missing. Equal entries are not always repeated.
Experiments:
Str112 receptor (TGTR) = assay: cell-free BRET^2 assay with dual-tagged Str112 (TGTR); assay type: biochemical, C. elegans; details: 1 μM ligand, 10 nM TGTR; for BRET^2 signal compared to the response of TGTR to water, significance: P≦0.05
Source text: The TGTR sequence flanked by NcoI and NotI restriction sites was synthesised by Genscript. The TGTR sequence was inserted into the NcoI and NotI sites of the pENTR11 vector. These were then recombined into pYES-DEST52 (Invitrogen) using Gateway® technology for subsequent expression in S. cerevisiae.
The same expression protocol was used for the expression of TGTR in InVSC1 as for OGOR expression. The TGTR coding sequence is provided as SEQ ID NO:51, whereas the amino acid sequence is provided as SEQ ID NO:52.
The same RET analysis protocol as described for the OGOR selectivity studies. 1 μM of the ligands pyruvic acid, citric acid, ethyl acetate, acetoin and diacteyl was assayed with 10 nM of TGTR
The bacterial strain OP50 was grown in LB overnight at 37° C. with shaking (200 rpm). E. coli strain OP50 is usually used as a food source for nematode growth in the laboratory (Brenner, 1974). Two assays were performed using the OP50 bacterial culture. The first assay was the addition of 10 μL of the bacterial culture or 10 μL of LB to 10 nM TGTR. The second assay required that 1 mL of the bacterial culture was placed in a microcentrifuge tube and centrifuged at 10000×g for 1 minute. 10 μL of the supernatant, following decanting into a fresh microcentrifuge tube, or 10 μL of LB was added to 10 nM TGTR. Following bacterial sample addition the same protocol was followed as for the OGOR RET analysis.

ODR-10 receptor (OGOR) = assay: cell-free BRET^2 assay with dual-labelled ODR-10 (OGOR) in yeast membrane preparations; assay type: biochemical, C. elegans
Description: Cells were harvested by centrifugation at 1500×g (4° C.) for 5 minutes, washed in water and resuspended in 4 mL of Dulbecco's phosphate buffered saline (D-PBS) or 1×PBS, containing 1000 mg/L glucose, 36 mg/L sodium pyruvate, calcium and magnesium (Invitrogen). The cells were lysed by French press (˜18000 psi) and the soluble protein fractions were isolated by centrifugation at 9300×g (4° C.) for 15 minutes. Following this the soluble protein fraction was transferred to 13.15 mL polycarbonate thick wall centrifuge tubes and ultracentrifuged at 40,000 rpm (Beckman Coulter L-80 ultra-centrifuge) for 1 hour at 4° C. The supernatant was decanted and the membrane pellet resuspended in 1 mL of D-PBD or 1×PBS, and left overnight at 4° C. to solubilise.
Simultaneous dual emission RET measurements were carried out with a POLARstar OPTIMA microplate reader (BMG LabTech). Simultaneous emission measurements used a BRET^2 filter set (410-80/515-30) with the set respective gains for each channel (3300/4095).
To assess the relative concentrations of BRET^2 tagged receptor samples the fluorescence intensity of the sample was determined from spectral scans and the sample amount normalized by the OGOR fluorescence intensity. To convert GFP^2 intensity into concentration purified GFP^2 protein was assayed at different concentrations to produce a calibration graph relating concentration to fluorescence intensity. […] Rearranging the line of best fit equation (y=271x+233.31) results in conversion of fluorescence intensity to concentration. […]
RET analysis was carried out in 96-well plates (Perkin-Elmer) and involved incubating the specified dual tagged receptor protein (OGOR) for 45 minutes with 1 μM of each particular odorant. […] A background signal was recorded by assaying a sample of D-PBS (or 1×PBS). […]
For BRET measurements Clz400a substrate (5 μM) was added following the 45 minute incubation time and the signal recorded using a 0.50s integration time over a 5 second period. Following addition of Clz400a the well was re-sealed while the signal was recorded to reduce cross-contamination of samples. […]

OGOR mutant (H110Y) = assay: cell-free BRET^2 assay with OGOR mutant (H110Y), negative control; assay type: biochemical, C. elegans; details: μM concentrations of diacetyl
Description: Site-directed mutagensis was carried out with OGOR in pDONR201 vector (see above) as the double stranded template. The histidine 110 to tyrosine (H110Y) mutation was performed using the Stratagene Quickchange site directed mutagenesis kit according to standard protocols using the following primers; 5′-[…]-3′ (WT) (SEQ ID NO:43) and 5′-[…] GTG-3′ (H110Y antisense) (SEQ ID NO:44).
PCR was performed with Pfx50™ standard ingredients (Invitrogen) and conditions were as follows 94° C. 2 mins, 16 cycles of 94° C. 30 secs, 55° C. 1 minute, 68° C. 6.8 minutes. Following sequencing the OGOR mutant was then subcloned into pYES-DEST52 (Invitrogen) using Gateway® technology (5′ and 3′ attB sites were included in original OGOR sequence) for subsequent expression in S. cerevisiae.
RET analysis was carried out in 96-well plates (Perkin-Elmer) and involved incubating the specified dual tagged receptor protein (OGOR) for 45 minutes with 1 μM of each particular odorant. The final volume was 100 μL and included 10 μL of odorant, receptor protein sample (see ‘Normalization of sample concentration’ section), D-PBS (or 1×PBS) and 5 μL of Clz400a (5 μM). A background signal was recorded by assaying a sample of D-PBS (or 1×PBS). During the incubation time the 96-well plate wells were sealed with Topseal™—A (Packard) with each sample area individually sealed. […]

ODR-10 receptor (OCOY) = assay: cell-free FRET assay with dual-labelled ODR-10 (OCOY); assay type: biochemical, C. elegans; details: μM concentrations of diacetyl
Description: All spectral scans were recorded with a plate-reading SpectraMax M2 spectrofluorimeter (Molecular Devices). 100 μL aliquots of membrane preparations sample were scanned using 96-well plates (Perkin-Elmer). Fluorescence spectral scans recorded from 450 to 600 nm with an excitation wavelength of 420 nm using a 455 nm emission cut-off filter.
To compare the sensitivity of the BRET^2 system to the FRET system for monitoring GPCR activation the BRET^2 components used to tag the ODR-10 receptor (OGOR) were replaced with FRET components resulting in the insertion of CFP into the 3rd intracellular loop and YFP at the C-terminus (OCOY). The CFP (mCFP) (SEQ ID NO:45) and YFP (mCitrine) (SEQ ID NO:46) derivatives were both monomeric and codon optimized (EUROSCARF) for yeast expression (SEQ ID NOs 47 and 48 respectively).
The OCOY sequence flanked by KpnI and XhoI restriction sites was synthesised by Genscript. The OCOY sequence was inserted into the KpnI and XhoI sites of the pENTR11 vector. These were then recombined into pYES-DEST52 (Invitrogen) using Gateway® technology for subsequent expression in S. cerevisiae. […]
To assess the relative concentrations of dual-tagged receptor samples the fluorescence intensity of the sample was determined from spectral scans and the sample amount normalized by the OCOY fluorescence intensity. […]

whole-cell BRET^2 assay = assay type: cell-based; details: 1 μM, 45 minutes incubation, P≦0.05
Description: FIG. 16. BRET^2 signal upon incubation (45 minutes) with 1 μM of diacetyl (mean±S.D., n=3) monitored using a whole-cell and cell-free assay systems.

[1] = test system: ODR-10 expressing HEK 293 cells; details: cited from earlier work
α2A receptor = target: T1, α2A receptor (Mus musculus, UniProt Q01338); details: 10 nM; cited from earlier work
T1 sequence (Q01338 1-465): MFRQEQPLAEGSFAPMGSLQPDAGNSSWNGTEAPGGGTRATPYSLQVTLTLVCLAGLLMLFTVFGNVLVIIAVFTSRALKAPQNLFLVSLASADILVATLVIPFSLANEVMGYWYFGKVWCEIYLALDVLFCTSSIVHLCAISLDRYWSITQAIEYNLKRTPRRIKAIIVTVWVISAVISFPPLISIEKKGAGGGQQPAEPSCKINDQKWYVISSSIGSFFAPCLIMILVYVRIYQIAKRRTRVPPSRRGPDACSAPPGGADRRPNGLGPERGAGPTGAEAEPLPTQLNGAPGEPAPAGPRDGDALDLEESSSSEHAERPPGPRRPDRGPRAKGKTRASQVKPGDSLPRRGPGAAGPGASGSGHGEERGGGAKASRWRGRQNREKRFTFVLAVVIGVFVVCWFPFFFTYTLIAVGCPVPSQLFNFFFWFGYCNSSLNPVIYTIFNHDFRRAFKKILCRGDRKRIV

PTHR = target: T2, PTHR (Homo sapiens, UniProt Q03431); details: 1 μM; cited from earlier work
T2 sequence (Q03431 27-593): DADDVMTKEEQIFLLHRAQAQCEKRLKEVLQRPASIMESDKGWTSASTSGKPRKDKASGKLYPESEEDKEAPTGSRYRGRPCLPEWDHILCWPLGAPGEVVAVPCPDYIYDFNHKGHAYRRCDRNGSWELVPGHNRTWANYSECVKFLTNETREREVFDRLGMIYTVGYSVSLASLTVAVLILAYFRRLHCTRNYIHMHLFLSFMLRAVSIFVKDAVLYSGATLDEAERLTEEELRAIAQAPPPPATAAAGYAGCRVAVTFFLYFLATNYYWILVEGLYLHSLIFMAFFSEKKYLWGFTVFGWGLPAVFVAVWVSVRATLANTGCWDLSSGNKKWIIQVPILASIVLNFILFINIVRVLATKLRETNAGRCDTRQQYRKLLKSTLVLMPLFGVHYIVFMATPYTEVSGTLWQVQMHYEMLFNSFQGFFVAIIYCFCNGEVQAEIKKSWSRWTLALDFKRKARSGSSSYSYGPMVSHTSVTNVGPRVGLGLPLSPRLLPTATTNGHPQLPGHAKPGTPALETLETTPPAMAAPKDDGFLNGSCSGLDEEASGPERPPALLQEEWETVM

CC(=O)C(C)O (stereo not shown) [acetoin]
increase in the BRET^2 signal (Str112 receptor (TGTR)): 20.8% | BRET^2 signal compared to the response of TGTR to water, significance (Str112 receptor (TGTR)): significantly higher

CC(=O)C(C)=O [diacetyl]
decrease in the BRET^2 signal, cell-free assay system (ODR-10 receptor (OGOR); 1 μM, 45 minutes incubation, Example 7, P≦0.05): 52% | change in BRET^2 signal compared to the solvent (water) response (ODR-10 receptor (OGOR); OGOR, μM concentrations (1 μM) of ligand, 45 minutes incubation, decrease in signal): 37.5% and 32.4% | EC50 expressed as parts per quadrillion (ODR-10 receptor (OGOR); equivalent of the fM EC50): 0.31 ppq | BRET^2 response to diacetyl (OGOR mutant (H110Y)): 4.1% | response versus solvent (water) response, significance (OGOR mutant (H110Y)): not significantly different | reduction in FRET ratio (intensity at 520 nm/intensity at 480 nm) (ODR-10 receptor (OCOY)): 7.6% | response versus solvent (water) response, significance (ODR-10 receptor (OCOY)): significantly different | change in the BRET^2 signal, whole cell assay (whole-cell BRET^2 assay): no significant change | Ca^2+ elevation response ([1]; ODR-10 expressing HEK 293 cells): the only volatile compound to produce a Ca^2+ elevation response | apparent affinity (EC50) as part per million ([1]; expressed in human cells, calcium imaging): ~0.2 ppm | EC50 ([1]; expressed in human cells, calcium imaging, read-out: apparent affinity (EC50) of ODR-10 for diacetyl): 2300 nM

NC[C@H](O)c1ccc(O)c(O)c1 [norepinephrine]
change in the FRET signal upon binding (α2A receptor): ~5%

CC(=O)C(=O)O [pyruvic acid]
BRET^2 signal compared to the response of TGTR to water, significance (Str112 receptor (TGTR)): significantly higher

PTH: parathyroid hormone, agonist of PTHR, literature value
change in the FRET signal upon binding (PTHR): ~20%

Source: patent publication US8647887B2, “Measuring G protein coupled receptor activation” (Commonwealth Scientific and Industrial Research Organisation, priority 2009, dated 2014)
